Assay results from US20180250328A1, “Metallocene-boronic acid-containing compounds and copolymers as antimicrobial agents” (University of South Carolina, priority 2017, published 2018).

Experiments:
[1] = test system: S. aureus; assay: disk-diffusion assay of penicillin-loaded polymers; format: cell-based; settings: Staphylococcus aureus
Experimental: FIG. 8B is a 3-D plot of inhibition zones of penicillin, penicillin loaded cobaltocenium-containing polymers (PCo-Peni), and penicillin loaded cobaltocenium-boronic acid-containing copolymers (PCo-PPB-Peni) against six strains of bacteria using different amounts of penicillin (A: 5 μg penicillin-G alone, B: PCo-Peni with 5 μg penicillin-G, C: PCo-PPB-Peni with 5 μg penicillin-G, D: 10 μg penicillin-G, E: PCo-Peni with 10 μg penicillin-G, F: PCo-PPB-Peni with 10 μg penicillin-G).
For the bacteria, a single colony was inoculated in 30 mL tryptic soy broth (TSB) at 37° C. for 24 hours, shaking at 190 rpm/min. All bacteria were grown to an optical density of about 1.00 (OD600=1.00) for further use. To conduct the agar disk-diffusion assays, actively-growing cultures of each bacterial strain on mannitol salt agar (MSA) were inoculated on tryptic soy broth (TSB) agar plates. The bacterial growth culture (cell concentrations were 1.0×10^6 CFU/mL) was diluted from 10 μL to 1 mL in tryptic soy broth (TSB) and 100 μL was spread on TSB agar plates to form a bacterial lawn covering the plate surface. Then, 6 mm (diameter) filter discs were added to the plate surface, aqueous cobaltocenium-boronic acid-containing copolymers (PCo-PPB) at different concentrations were added to disks, and the plates were incubated at 28° C. for 18 h. […]

[2] = test system: six strains of bacteria (S. aureus, E. faecalis, E. coli, P. vulgaris, P. aeruginosa and K. pneumoniae); assay: LIVE/DEAD bacteria viability assay by CSLM; format: cell-based; settings: 18-hour incubation at 37° C.; penicillin-G 5, PCo-PPB 11 μg, PCo-PPB-Peni 16 μg per 1 mL
Experimental: One (1) mL of active bacterial stock of various strains was introduced to 5 penicillin-G, 11 μg cobaltocenium-boronic acid-containing copolymer, and 16 μg penicillin-loaded cobaltocenium-boronic acid-containing copolymers (penicillin-G weight: 5 m), respectively. An untreated cell suspension was used as the control. Following 18-hour incubation at 37° C., 1 μL LIVE/DEAD BacLight (Bacterial Viability Kit; INVITROGEN INC.®) was added to the incubation solution. After incubation for 15 minutes, cells were imaged using a LEICA TCS SP5® Laser Scanning Confocal Microscope with a 63X oil immersion lens.

CC1(C)S[C@@H]2[C@H](NC(=O)Cc3ccccc3)C(=O)N2[C@H]1C(=O)O [penicillin-G]
zone of inhibition at 5 µg/disc ([1]; 5 μg penicillin-G): 7 mm | zone of inhibition at 10 µg/disc ([1]; 10 μg penicillin-G): 14.5 mm | killing of bacteria (LIVE/DEAD BacLight) [2]: not effective at killing bacteria
